Test results from patent US20090203685A1, “ANTI-PROLIFERATIVE COMPOUNDS FROM A 3-ARYL-COUMARINE OR 3-ARYL-QUINOLIN-2-ONE AND USES THEREOF” (EOS (ETHICAL ONCOLOGY SCIENCE) S.P.A., priority 2006, published 2009).

Experiments:
Type in all cases: cell-based
[1] = test system: lung, prostate, breast, colon, melanoma, and myeloid tumor cells; assay: Inhibition of cell proliferation in vitro, panel of tumor cells (Example 3); details: Homo sapiens; range over tumor cell lines, printed as 50 nM to 1 μM; 72 h; read-out: IC50s of growth inhibition
Method: 2C Proliferation test ViaLight® HS High Sensitivity Cytotoxicity and Cell Proliferation BioAssay Kit
This protocol allows the determination of the cytostatic and cytotoxic activities of compounds to be tested on mammalian cells in culture and was carried out essentially according to the manufacturer's recommendations.
Cells are suspended in 15 mL of their respective media and are enumerated. They are then diluted in their media in order to obtain: • 2500 cells per 90 μL per well for MRC5 cells • 5000 cells per 90 μL per well for all other cell lines. Cells are then seeded in a 96 well plate, and incubated at least 4 hours in the incubator at 37° C. in 5% CO2. […]
Then, 100 μL of test buffer (test Vialight® test buffer) is added in each well and the control plate is incubated during 2 minutes. The luminescence is read in each well. The mean luminescence for each type of cells is called T0. […]
Then, 100 μL of test buffer (test Vialight® test buffer) is added in each well and the plates are incubated during 2 minutes. The luminescence is read in each well. For each type of cell, the mean luminescence in the well not containing the compound is called C72 and the mean luminescence in well containing a given concentration of a compound to be tested is called T72. […]

[2] = test system: lymphoid and myeloid tumor cells; assay: Viability and cell cycle profile, conclusion for lymphoid and myeloid tumor cells; details: 500 nM; apoptotic cell cycle profile
Method: (§1) Propidium iodide (PI) cannot normally cross the cell membrane; it is thus excluded by viable cells but not from dying or dead cells, having a damaged membrane, where it intercalates into double-stranded nucleic acids and fluoresces when excited at 488 nm.
(§2) The cells are pelleted by gentle centrifugation 1200 rpm/5 min/4° C., then the supernatant is discarded and replaced by 1 mL of fresh medium. One hundred microliters of propidium iodide (40 μg/mL) are added to 400 μL of the cell suspension in a FACS tube and viability is measured by flow cytometry as the percentage of cells whose fluorescence recorded on FL-3 channel is comprised between 0 and 2.
(§3) The cells are pelleted by gentle centrifugation 1200 rpm/5 min/4° C., then the supernatant is discarded and the cells are fixed with 1 mL of PBS/Ethanol 70% overnight at −20° C. The tubes are then centrifuged during 5 minutes at 1200 rpm and the supernatant is removed. The pellet is then re-suspended in 450 μL of PBS before 50 μL of RNAse (1 mg/mL) and 5 μL of propidium iodide (2 mg/mL) are added. Each tube is left 30 minutes at 37° C. and immediately analysed by flow cytometry after incubation.
(§4) Viability and cell cycle profile, tested with compound (01), at 500 nM: […]

[3] = Viability (propidium iodide staining), NCI-H460; details: human, NCI-H460 cells (lung), NCI-H460 lung (NSCLC), 500 nM
Method: as §1, §2, §4

[4] = Viability (propidium iodide staining), Jurkat; details: human, Jurkat cells, 500 nM
Method: as §1, §2, §4

CEM = assay: Cell cycle analysis, CEM; details: 500 nM
Method: as §3
A biparametric dot plot representation FL3 peak vs FL3 integer is plotted and the cells located on the diagonal are gated and analysed on a histogram representing the number of cells as a function of the FL3 peak.
To assess the relative position of cursors defining relative proportion of cells in subG1, G1, S or G2 phase of the cell cycle, G1 and G2 peaks are to be defined first:
The G1 peak is defined as the major peak in absence of treatment (generally X=200);
The G2 peak is centered on the value which is twice the value of the G1 peak (generally X=400).
Cells in subG1 phase are plotted in the part of the histogram preceding the G1 peak (generally X<200) and cells in S phase are enclosed in the area between the G1 and G2 peaks.
On this graphic, subG1, G1, S and G2/M phases of the cell cycle can thus be defined.
as §4

IC50 [1]: 0.05 to 1 µM
SMILES: COc1cc(NC(=S)NC(=O)/C=C/c2ccco2)ccc1-c1cc2ccccc2oc1=O [Compound 01, (2E)-3-(2-furyl)-N-({[3-methoxy-4-(2-oxo-2H-chromen-3-yl)phenyl]amino}carbonothioyl)acrylamide]
Effect on lymphoid and myeloid tumor cells [2]: cytotoxic effect
viability at 48 h, 0.5 µM ([3]; 48 h): 80%
viability at 72 h, 0.5 µM ([3]; 72 h): 80%
viability at 48 h, 0.5 µM ([4]; 48 h): 4%
viability at 72 h, 0.5 µM ([4]; 72 h): 1%
Cell cycle profile - 72 h (CEM): Strong sub-G1
